Experimental data taken from PubChem BioAssay AID463229 (Broad Institute, 2010).
“And” between values parts separate entries of the source, which are not always exact repeats. Equal entries are not always repeated. The source made the active and inactive calls.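 How the source made its calls: active means compounds raising the signal whose fitted half-maximal concentration is at or below their top tested dose (cut at about 25 µM in these data); inconclusive means flat fit at 30 to 70% activity, or a poor fit; inactive means the rest.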

test system: INS-1E rat beta cells, no cytokines, CellTiter-Glo ATP, 48 h; test: ATP level change in INS-1E without cytokines, dose response, counter-screen for beta-cell apoptosis protection project, INS-1E rat cells, ATP luminescence, cherry pick (AID 463229)

Row | Compound | AC50
1 | CCCOc1ccc(CSc2nc3ccccc3[nH]2)cc1 | 5.41 µM
2 | CCCCCCCCCCn1ccc(=N)cc1 | 0.543 µM
3 | O=C(CN1CCOCC1)N/N=C/c1c(O)ccc2ccccc12 | 16.1 µM
4 | O=C(NCC(c1ccco1)N1CCCC1)c1ccc(Cl)c(S(=O)(=O)N2CCc3ccccc32)c1 (stereo not given) | 7.47 µM
5 | Cn1nccc1C(=O)NC1CCCc2c1cnn2-c1ccccc1F (stereo not given) | 3.16 µM
6 | Cc1ccc2c(c1)S/C(=C/c1ccc[n+](CCO)c1)N2C | 3 µM
7 | Cc1ccc(-c2c[n+]3c(n2-c2ccccc2)SCC3)cc1 | 2.63 µM
8 | O=C(CSc1nnc(Cn2nnc3ccccc32)o1)N(Cc1ccc(Cl)cc1)c1ccccc1 | 6.17 µM
9 | Cc1ccc(C)c(S(=O)(=O)N2CCN(c3ncnc4sccc34)CC2)c1 | 4.53 µM
10 | C=C1C(O)[C@@H]2O[C@]3(CC[C@H](/C=C/C(C)[C@@H]4CC(C)=CC5(O[C@H](C[C@@](C)(O)C(=O)O)CCC5O)O4)O3)CC[C@H]2O[C@@H]1C(O)CC(C)[C@H]1OC2(CCCCO2)CCC1C (stereo not given in full) | < 0.195 µM
11 | COc1ccc(CNCCC(c2ccc(OC(C)C)cc2)c2ccccc2OC)cc1 (stereo not given) | 12.2 µM
12 | CC(C)(C)c1ccc(C(O)CCCN2CCC(C(O)(c3ccccc3)c3ccccc3)CC2)cc1 (stereo not given) | 8.16 µM
13 | S=C(Nc1ccc(Cl)cc1)Nc1cccc2cnccc12 | 22.2 µM
14 | COc1ccc2nc3cc(Cl)ccc3c(Nc3cc(CN4CCCC4)c(O)c(CN4CCCC4)c3)c2n1 | 19.5 µM
15 | Cc1ccc(-n2c(-c3ccccc3)c[n+]3c2CCC3)cc1 | 3.11 µM
16 | CCCCCCCCCCOC(=O)Cn1c(COc2ccccc2)[n+](C)c2ccccc21 | 4.25 µM
17 | CC[N+](C)(CC)CCC(c1ccccc1)C1CCCCC1 (stereo not given) | > 26 µM (inactive)
18 | O=C(Nc1nc(-c2ccccn2)cs1)Nc1ccc(F)cc1F | 10.2 µM
19 | COc1nc(Nc2nc3ccccc3c(=O)[nH]2)nc2ccc(C)cc12 | 2.31 µM
20 | CC1CN(CC(O)COC(c2ccc(Cl)cc2)c2ccc(Cl)cc2)CC(C)O1 (stereo not given) | 14.2 µM
21 | Cc1cc(C(=O)CSc2nc3ccccc3c(=O)n2C)c(C)n1Cc1ccc2c(c1)OCO2 | 2.07 µM
22 | COc1cc(C(=O)N/N=C(\c2ccccc2)c2ccccn2)cc(OC)c1OC | 3.3 µM
23 | COc1ccc(C2/C=C\CN(C(=O)C3CC3)[C@H](Cc3ccccc3)C(=O)N2Cc2ccc(F)cc2)cc1 (stereo not given in full) | 14.5 µM
24 | O=C(Cc1cccs1)N/N=C\c1ccc([N+](=O)[O-])s1 | 7.04 µM
25 | COc1ccc(-c2nn(-c3ccccc3)cc2/C=N/Nc2ccc3ccccc3n2)cc1OC | 7.19 µM
26 | Cc1cccc(/C=N/NC(=O)c2c(-c3ccccc3)noc2C)c1O | 7.61 µM
27 | COc1ccccc1C(=O)Nc1nc2ccccc2[nH]1 | 1.22 µM

Row | Compound | AC50
28 | c1ccc(CCNc2ncnc3ccccc23)cc1 | 1.71 µM
29 | Cc1ccc2c(c1)[nH]c1c(N3CCN(Cc4ccccc4)CC3)ncnc12 | 8.07 µM
30 | Oc1[nH]c(N=C2N=c3ccccc3=N2)c2ccccc12 | 3.44 µM
31 | CCc1cc(CNC(=O)c2ccc3nc(Cc4ccc(OC)c(OC)c4)oc3c2)on1 | 9.39 µM
32 | Cc1ccc(/C=N/NC(=O)Cc2ccc(Cl)cc2)c(O)c1 | 12.3 µM
33 | COc1cc(OC)c2cc(C(=O)N/N=C/c3cccc(OC)c3O)[nH]c2c1 | 15.5 µM
34 | CC(=O)N1CCN(c2ccc(Oc3ccc([N+](=O)[O-])c(C(F)(F)F)c3)cc2)CC1 | 7.04 µM
35 | Cc1cc(C)nc(N/N=C/c2cc(Br)ccc2O)n1 | 12.6 µM
36 | CCn1c(SCC(=O)Nc2cc(C)on2)nc2sc3c(c2c1=O)CCCC3 | 16.7 µM
37 | Cn1cc(CNCc2ccc(OC(F)(F)F)cc2)c(-c2ccc3c(c2)OCCO3)n1 | 3.64 µM
38 | CC(C)(C)Nc1nc(-c2ccccn2)nc2ccccc12 | 6.87 µM
39 | CCc1ccc(C2CC(c3cccc(Cl)c3)n3nc(N)nc3N2)cc1 (stereo not given) | 14.7 µM
40 | O=C(N/N=C/c1cc([N+](=O)[O-])ccc1O)c1cccc(NC(=O)c2cccc(Cl)c2)c1 | 5.82 µM
41 | COc1cc2sc(-c3ccccc3OC)c(-c3ccc(OCCN4CCCCC4)cc3)c2cc1OC | 7.57 µM
42 | COc1ccc(C(=O)NN/C(C)=C/C(=O)C(F)(F)C(F)(F)C(F)(F)F)cc1 | > 26 µM (inactive)
43 | NC(N)=NC(N)=Nc1ccc(SC(F)(F)F)cc1 | 2.76 µM
44 | CCN(CC)c1ccc(/C=N/NC(=O)c2ccco2)c(O)c1 | 2.11 µM
45 | O=C(N/N=C/c1ccc[nH]1)c1ccc(COc2cccc3cccnc23)cc1 | 1.92 µM
46 | CNC(=O)c1sc(N2N=C3/C(=C/c4ccccc4)CCCC3C2c2ccccc2)nc1C (stereo not given) | 5.11 µM
47 | CCN(CC)c1ccc(CNc2nc3ccccc3n2CCN2CCCCC2)cc1 | 7.26 µM
48 | CCN(CC)c1ccc(/C=N/NC(=O)c2cccc(S(=O)(=O)N3CCOCC3)c2)c(O)c1 | 2.12 µM
49 | C[C@H]1CCC/C=C/[C@@H]2C[C@H](O)C[C@H]2[C@H](O)/C=C/C(=O)O1 | 0.948 µM and 1 µM
50 | CCCCCCCCCCCCCCCC[n+]1cccc(C(=O)N(CC)CC)c1 | 8.01 µM
51 | O=C(NCc1ccccc1)C1=C[C@H](c2csc3ccccc23)C[C@H](OCCCCO)O1 | 6.75 µM
52 | CCC(C)(C)c1ccc(OCCCC[n+]2ccc(C)cc2)c(C(C)(C)CC)c1 | 1.91 µM
53 | CCC(C)(C)c1ccc(OCCCC[n+]2ccccc2)c(C(C)(C)CC)c1 | 2.27 µM
54 | CC1CCN(Cc2c(C(=O)N/N=C/c3ccccc3O)nnn2-c2nonc2N)CC1 | 5.67 µM

Row | Compound | AC50
55 | CCCCCc1ccc(OCCCC[n+]2ccc(C)cc2)c(CCCCC)c1 | 2.34 µM
56 | Cc1nc2ccc(NC(=O)c3cc(S(=O)(=O)N(C)c4ccccc4)ccc3Cl)cc2s1 | 2.8 µM
57 | CCCCCCCCn1ccc(=N)cc1 | 0.65 µM
58 | Nc1ccccc1C#CC(=O)c1ccccc1 | 11.9 µM
59 | Cc1cc(Nc2nc3ccccc3nc2Cl)n(-c2ccc([N+](=O)[O-])cc2)n1 | 12 µM
60 | COc1cc2nc(N3CCN(c4cc(C)ccc4C)CC3)nc(N)c2cc1OC | 6.91 µM
61 | Cc1cc(S(=O)(=O)NCc2ccncc2)c(C)cc1Br | 6.19 µM
62 | C=CCn1c(SCN2C(=O)c3ccccc3C2=O)nc2ccc(Cl)cc2c1=O | 7.16 µM
63 | CCC(/C=C1\Sc2ccc(OC)cc2N1CC)=C\c1sc2ccc(OC)cc2[n+]1CCCS(=O)(=O)[O-] | 5.74 µM
64 | O=S(=O)(c1ccc2c(c1)OCCO2)N1CCN(c2ncnc3sccc23)CC1 | 4.9 µM
65 | Cc1nc2ccccc2c2oc(C(=O)Nc3ccc(C(C)C)cc3)cc12 | 21.6 µM
66 | C(=N\Nc1ncnc2sc3c(c12)CCC3)/c1cccs1 | 9.08 µM
67 | COc1ccc(Sc2nc(-c3ccccn3)ncc2OC)cc1 | 19.3 µM
68 | CC(C)[C@H]1C(=O)O[C@H](C(C)C)C(=O)N(C)[C@@H](C(C)C)C(=O)O[C@H](C(C)C)C(=O)N(C)[C@@H](C(C)C)C(=O)O[C@H](C(C)C)C(=O)N1C | 3.8 µM
69 | Cc1cc(F)ccc1S(=O)(=O)Nc1ccccc1C(=O)Nc1ccccc1-c1nc2ccccc2[nH]1 | 7.72 µM
70 | C=CCCc1ccc(C#N)c(SCc2c(C(=O)OCC)c3cc(OC(C)=O)c(Br)cc3n2C)n1 | 1.07 µM
71 | COc1cccc(/C=N\NC(=O)c2ccc(Cn3cc(Br)c([N+](=O)[O-])n3)o2)c1O | 7.9 µM
72 | C=C(C)C(=O)O[C@H]1C/C(C)=C\C(=O)/C=C(\C)[C@H](O)[C@@H]2OC(=O)C(=C)[C@@H]21 | 14.5 µM
73 | CC(CC(=O)N1CCN(c2cccc(Cl)c2)CC1)S(=O)(=O)c1ccc2c(c1)NC(=O)CO2 (stereo not given) | 7.1 µM
74 | O=C(c1cc2sccc2n1Cc1ccc(F)cc1)N1CCN(c2nc3ccccc3s2)CC1 | 5.82 µM
75 | COc1ccccc1-n1c(=O)oc2ccc(Cl)cc2c1=O | 11.8 µM
76 | Cc1ccccc1NC(=O)/C=C/c1ccc([N+](=O)[O-])s1 | 6.96 µM
77 | Cc1ccccc1-c1cc(C(=O)Nc2sc(C)c(C)c2C(N)=O)c2ccccc2n1 | 6.8 µM
78 | O=C(NCCOc1cccnc1)c1ccc(OC2CCN(Cc3ccccn3)CC2)cc1 | < 0.195 µM
79 | COc1cc(CSc2nnnn2-c2ccc(C)cc2)cc(OC)c1OC | 4.46 µM
80 | Nc1nonc1-n1nnc(C(=O)N/N=C/c2ccccc2O)c1CN1CCCC1 | 22.9 µM
81 | O=C(N=Nc1c(O)n(Cc2ccccc2)c2ccccc12)c1cc2ccccc2cc1O | 8.07 µM

Row | Compound | AC50
82 | COc1ccc2nc(C)cc(SCC(=O)N/N=C/c3ccc(O)cc3O)c2c1 | 17.4 µM
83 | CCOc1cc(-c2sc(Nc3cc(C)ccc3OC)n[n+]2-c2ccccc2)ccc1OC | 15 µM
84 | O=C(Oc1c(CN2CCOCC2)cc(Cl)c2cccnc12)c1ccc(F)cc1 | 14 µM
85 | O=S(=O)(Nc1nc2ccccc2nc1Nc1ccc(N2CCOCC2)cc1)c1cc(Cl)ccc1Cl | 6.63 µM
86 | COc1ccc(C2CC(c3ccc4ccccc4c3OC(C)=O)=NN2C(C)=O)cc1 (stereo not given) | 8.47 µM
87 | O=C(Cn1c(-c2ccccc2)c[n+]2ccsc12)c1ccc([N+](=O)[O-])cc1 | 6.04 µM
88 | CC[n+]1ccc(/C=C/c2c[nH]c3ccccc23)cc1 | 5.85 µM
89 | Cc1c(Cl)c([N+](=O)[O-])nn1Cc1ccc(C(=O)N/N=C\c2cc(Cl)ccc2O)o1 | 6.95 µM
90 | CCC(CO)[n+]1c(C)cc(/C=C2\Sc3ccccc3N2Cc2ccccc2)cc1C (stereo not given) | 0.765 µM
91 | Cc1cc2c(NCCc3ccccc3)ncnc2s1 | 2.95 µM
92 | CCN(CC)S(=O)(=O)c1ccc(Cl)c(C(=O)Nc2ccc(Cl)cc2[N+](=O)[O-])c1 | 7.97 µM
93 | CCC(=O)NC(c1ccc(C)cc1)c1cc([N+](=O)[O-])c2cccnc2c1O (stereo not given) | 13.8 µM
94 | CCOc1ccc(Nc2c3ccccc3nc3ccccc23)cc1 | 7.36 µM
95 | CCc1ccc2[nH]c(=O)c(C3C(C#N)=C(N)Oc4c3ccc3cccnc43)cc2c1 (stereo not given) | 5.4 µM
96 | CCn1c(=NC(=O)c2ccc(S(=O)(=O)N3CCOCC3)cc2)sc2cccc(OC)c21 | 8.4 µM
97 | CCN(CC)c1ccc(/C=N/NC(=O)Cc2cccs2)c(O)c1 | 4.5 µM
98 | O=C(Nc1ccc(Cl)cc1)Nc1nnc(CSCc2ccc(Cl)cc2)s1 | 6.74 µM
99 | CC1=C(CO)C(=O)OC([C@@H](C)C2CC[C@H]3C4C[C@H]5O[C@]56[C@@H](O)C=CC(=O)[C@]6(C)C4CC[C@]23C)C1 (stereo not given in full) | 6.2 µM
100 | CC1Sc2ccc(S(=O)(=O)N3CCC(C(=O)Nc4ccc(Cl)cc4)CC3)cc2NC1=O (stereo not given) | 6.13 µM
101 | COc1ccc(OC)c(NC(=O)CSc2ncnc3c2cnn3-c2ccccc2Cl)c1 | 2.31 µM
102 | Cc1ccc(-c2nc(NC(=O)c3nn(C)cc3[N+](=O)[O-])sc2C)cc1C | 3.43 µM
103 | CCC(=O)N1c2ccc(S(=O)(=O)N3CCN(c4ccc([N+](=O)[O-])cc4)CC3)cc2CC1C (stereo not given) | 6.37 µM
104 | Cc1ccc(C)n1-c1ccc(C(=O)Nc2ccccc2)cc1 | > 26 µM (inactive)
105 | COc1cnc(-c2ccccn2)nc1Sc1ccccc1Cl | 23.1 µM
